The values that follow come from paper PMC6374188 (Organic & biomolecular chemistry, 2019).

Assay [1] deals with T1, GlbB (Caldimonas brevitalea, UniProt A8KCI8).
T1 sequence (A8KCI8 1-286): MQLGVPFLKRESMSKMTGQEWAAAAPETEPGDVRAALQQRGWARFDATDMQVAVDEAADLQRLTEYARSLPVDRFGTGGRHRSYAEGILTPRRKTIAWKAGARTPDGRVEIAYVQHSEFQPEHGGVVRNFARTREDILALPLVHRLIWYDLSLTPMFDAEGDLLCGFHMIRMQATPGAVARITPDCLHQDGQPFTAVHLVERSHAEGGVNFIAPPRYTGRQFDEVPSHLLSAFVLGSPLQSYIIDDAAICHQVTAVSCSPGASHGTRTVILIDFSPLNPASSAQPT
Description: steady-state kinetics of oxidation. The assay is classed as biochemical. The settings on record: Fe(II)/alpha-ketoglutarate-dependent; product is the sulfoxide.

The target of assay [2] is T1, GlbB. Description: steady-state kinetics of hydroxylation. The settings on record: Fe(II)/alpha-ketoglutarate-dependent C4 hydroxylation. It counts as biochemical.

Structures are written as SMILES.

For the compound `CSCC[C@H](N)C(=O)O` [L-Met], in assay [1], the KM result was “steady-state kinetic parameters were obtained for hydroxylation of L-Lys, L-Leu, and L-Met (Figure S5)”. On to `CC(C)C[C@H](N)C(=O)O` [L-Leu], for which, in assay [2], the KM result was “steady-state kinetic parameters were obtained for hydroxylation of L-Lys, L-Leu, and L-Met (Figure S5)”. Same read-out and setting: the same measure for `NCCCC[C@H](N)C(=O)O` [compound 3, L-Lys]: “steady-state kinetic parameters were obtained for hydroxylation of L-Lys, L-Leu, and L-Met (Figure S5)”.
